Measured values: article PMC6843445, “Pharmacokinetic Properties of Fluorescently Labelled Hydroxypropyl-Beta-Cyclodextrin” (Biomolecules, 2019)

Test system: HUVECs
Assay: FITC-HPBCD uptake, flow cytometry
Format: cell-based, Human
Procedure: Human umbilical vein endothelial cells (HUVECs) were removed from umbilical veins by exposure to dispase (0.2% in Hank’s balanced salt solution) and cultured in gelatin-coated flasks in medium 199 containing 15% foetal bovine serum (FBS), antibiotics, L-glutamine, sodium pyruvate and endothelial cell growth supplement from bovine pituitary. For the fluorescent microscopic experiments, cells were seeded onto gelatin-coated round glass coverslips and maintained in medium until the treatments.
In the flow cytometry experiments, HUVECs were treated with 50 µM FITC-HPBCD for 30 min at 37 °C and washed five times with ice-cold HBSS. Half of the samples were incubated for a further 60 min in HBSS at 37 °C. After the above-mentioned incubations every sample was trypsinized, the cell suspensions were washed twice with ice-cold HBSS and analyzed with a FACScan flow cytometer (BD Biosciences, San Jose, CA, USA). Propidium-iodide (PI) (2 µg/mL) was added to the samples to recognize dead cells and exclude them from the evaluation. FITC-HPBCD was excited by an argon laser at 488 nm and the emission was detected via 530/30 nm band pass filter. Data were analyzed by BDIS Cellquest software (Becton-Dickinson). The cellular fluorescence intensities of the FITC-HPBCD treated cells were compared to the fluorescence of the untreated control cells and expressed as relative cellular fluorescence intensities.

## 6-deoxy-6-[(5/6)-fluoresceinylthioureido]-(2-hydroxypropyl)-β-cyclodextrin [FITC-HPBCD]
50 µM 30 min, then 60 min in HBSS
  cellular fluorescence after further incubation in HBSS: significantly decreased
50 µM, 30 min incubation
  cellular fluorescence vs untreated control: significantly increased
